Laboratory results published in ChEMBL document CHEMBL4507259 (2021).

How the values were obtained:
[1] = target: Sodium-dependent dopamine transporter (Homo sapiens, UniProt Q01959); assay: dopamine transporter (h) CEREP ligand profiling; details: filed as antagonist, Compound concentration 10.0 uM
[2] = target: Cannabinoid receptor 2 (Homo sapiens) (UniProt P34972); assay: CB2 (h) CEREP ligand profiling; details: filed as agonist, Compound concentration 10.0 uM
[3] = target: Kappa-type opioid receptor (Homo sapiens) (UniProt P41145); assay: kappa (KOP) CEREP ligand profiling; details: filed as agonist; Compound concentration 10.0 uM
[4] = target: Substance-K receptor (Homo sapiens) (UniProt P21452); assay: NK2 (h) CEREP ligand profiling; details: filed as agonist, Compound concentration 10.0 uM
[5] = target: 5-hydroxytryptamine receptor 1B (Homo sapiens) (UniProt P28222); assay: 5-HT1B CEREP ligand profiling; details: filed as antagonist; Compound concentration 10.0 uM
[6] = target: Tyrosine-protein kinase ABL2 (Homo sapiens) (UniProt P42684); details: Compound concentration 1000.0 nM
[7] = target: Mitotic checkpoint serine/threonine-protein kinase BUB1 (Homo sapiens) (UniProt O43683); details: Compound concentration 1000.0 nM
[8] = target: Casein kinase I isoform gamma-1 (Homo sapiens) (UniProt Q9HCP0); details: Compound concentration 1000.0 nM
[9] = test system: Epidermal growth factor receptor (Homo sapiens), P00533 [G719C]; details: Compound concentration 1000.0 nM
[10] = test system: Epidermal growth factor receptor (Homo sapiens), P00533 [UNDEFINED MUTATION]; details: Compound concentration 1000.0 nM
[11] = target: Fibroblast growth factor receptor 2 (Homo sapiens) (UniProt P21802); details: Compound concentration 1000.0 nM
[12] = test system: Receptor-type tyrosine-protein kinase FLT3 (Homo sapiens), P36888 [N841I]; details: Compound concentration 1000.0 nM
[13] = target: Glycogen synthase kinase-3 beta (Homo sapiens) (UniProt P49841); details: Compound concentration 1000.0 nM
[14] = target: Homeodomain-interacting protein kinase 2 (Homo sapiens) (UniProt Q9H2X6); details: Compound concentration 1000.0 nM
[15] = target: Tyrosine-protein kinase JAK3 (Homo sapiens) (UniProt P52333); details: Compound concentration 1000.0 nM
[16] = test system: Mast/stem cell growth factor receptor Kit (Homo sapiens), P10721 [D816V]; details: Compound concentration 1000.0 nM
[17] = test system: Mast/stem cell growth factor receptor Kit (Homo sapiens), P10721 [V559D,T670I]; details: Compound concentration 1000.0 nM
[18] = target: Serine/threonine-protein kinase LATS1 (Homo sapiens) (UniProt O95835); details: Compound concentration 1000.0 nM
[19] = target: Serine/threonine-protein kinase LATS2 (Homo sapiens) (UniProt Q9NRM7); details: Compound concentration 1000.0 nM
[20] = target: Tyrosine-protein kinase Lyn (Homo sapiens) (UniProt P07948); details: Compound concentration 1000.0 nM
[21] = target: Mitogen-activated protein kinase kinase kinase 1 (Homo sapiens) (UniProt Q13233); details: Compound concentration 1000.0 nM
[22] = target: Mitogen-activated protein kinase kinase kinase 2 (Homo sapiens) (UniProt Q9Y2U5); details: Compound concentration 1000.0 nM
[23] = target: MAP/microtubule affinity-regulating kinase 4 (Homo sapiens) (UniProt Q96L34); details: Compound concentration 1000.0 nM
[24] = target: Serine/threonine-protein kinase 4 (Homo sapiens) (UniProt Q13043); details: Compound concentration 1000.0 nM
[25] = target: Myosin light chain kinase 2, skeletal/cardiac muscle (Homo sapiens) (UniProt Q9H1R3); details: Compound concentration 1000.0 nM
[26] = target: Myosin light chain kinase family member 4 (Homo sapiens) (UniProt Q86YV6); details: Compound concentration 1000.0 nM
[27] = target: Serine/threonine-protein kinase Nek2 (Homo sapiens) (UniProt P51955); details: Compound concentration 1000.0 nM
[28] = target: Cyclin-dependent kinase 17 (Homo sapiens) (UniProt Q00537); details: Compound concentration 1000.0 nM
[29] = target: Phosphorylase b kinase regulatory subunit alpha, liver isoform (Homo sapiens) (UniProt P46019); details: Compound concentration 1000.0 nM
[30] = test system: Phosphatidylinositol 4,5-bisphosphate 3-kinase catalytic subunit alpha isoform (Homo sapiens), P42336 [H1047L]; details: Compound concentration 1000.0 nM
[31] = target: cAMP-dependent protein kinase catalytic subunit PRKX (Homo sapiens) (UniProt P51817); details: Compound concentration 1000.0 nM
[32] = target: Serine/threonine-protein kinase PRP4 homolog (Homo sapiens) (UniProt Q13523); details: Compound concentration 1000.0 nM
[33] = target: Receptor-interacting serine/threonine-protein kinase 1 (Homo sapiens) (UniProt Q13546); details: Compound concentration 1000.0 nM
[34] = target: Dual serine/threonine and tyrosine protein kinase (Homo sapiens) (UniProt Q6XUX3); details: Compound concentration 1000.0 nM
[35] = target: STE20-like serine/threonine-protein kinase (Homo sapiens) (UniProt Q9H2G2); details: Compound concentration 1000.0 nM
[36] = target: Serine/threonine-protein kinase TAO3 (Homo sapiens) (UniProt Q9H2K8); details: Compound concentration 1000.0 nM
[37] = target: Tyrosine-protein kinase Tec (Homo sapiens) (UniProt P42680); details: Compound concentration 1000.0 nM
[38] = target: NT-3 growth factor receptor (Homo sapiens) (UniProt Q16288); details: Compound concentration 1000.0 nM
[39] = target: Serine/threonine-protein kinase WNK1 (Homo sapiens) (UniProt Q9H4A3); details: Compound concentration 1000.0 nM
[40] = target: Serine/threonine-protein kinase WNK3 (Homo sapiens) (UniProt Q9BYP7); details: Compound concentration 1000.0 nM
[41] = target: 5-hydroxytryptamine receptor 6 (Homo sapiens) (UniProt P50406); details: Compound concentration 10.0 uM
[42] = target: D(4) dopamine receptor (Homo sapiens) (UniProt P21917); details: Compound concentration 10.0 uM
[43] = target: Histamine H1 receptor (Homo sapiens) (UniProt P35367); details: Compound concentration 10.0 uM
[44] = target: Histamine H3 receptor (Homo sapiens) (UniProt Q9Y5N1); details: Compound concentration 10.0 uM
Sequence of Histamine H3 receptor (Homo sapiens) (Q9Y5N1 whole entry): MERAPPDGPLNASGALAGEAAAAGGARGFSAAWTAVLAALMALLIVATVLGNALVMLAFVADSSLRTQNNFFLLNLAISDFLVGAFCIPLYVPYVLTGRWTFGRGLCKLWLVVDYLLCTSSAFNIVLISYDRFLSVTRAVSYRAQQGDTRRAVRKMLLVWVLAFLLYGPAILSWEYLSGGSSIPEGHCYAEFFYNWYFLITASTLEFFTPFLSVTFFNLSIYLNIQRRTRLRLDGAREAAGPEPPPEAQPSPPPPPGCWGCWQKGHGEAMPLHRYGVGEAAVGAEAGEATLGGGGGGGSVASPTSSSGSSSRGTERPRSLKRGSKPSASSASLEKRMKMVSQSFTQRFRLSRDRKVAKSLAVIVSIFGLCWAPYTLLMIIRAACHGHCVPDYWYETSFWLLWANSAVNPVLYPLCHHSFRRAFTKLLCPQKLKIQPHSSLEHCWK

Sequence of Glycogen synthase kinase-3 beta (Homo sapiens) (P49841 whole entry, looked up): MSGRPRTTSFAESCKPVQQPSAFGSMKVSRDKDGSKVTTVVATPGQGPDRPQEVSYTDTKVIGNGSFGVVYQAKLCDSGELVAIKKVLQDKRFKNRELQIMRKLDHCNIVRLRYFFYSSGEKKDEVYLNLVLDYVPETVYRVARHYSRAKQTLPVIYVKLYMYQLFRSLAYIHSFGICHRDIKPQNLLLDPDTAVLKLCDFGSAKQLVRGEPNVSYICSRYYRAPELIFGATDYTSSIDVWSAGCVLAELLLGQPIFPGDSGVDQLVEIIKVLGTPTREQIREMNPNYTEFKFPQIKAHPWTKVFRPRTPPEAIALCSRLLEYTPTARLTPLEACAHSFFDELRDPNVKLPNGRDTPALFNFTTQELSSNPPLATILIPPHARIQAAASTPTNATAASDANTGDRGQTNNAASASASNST
Sequence of Mitogen-activated protein kinase kinase kinase 2 (Homo sapiens) (Q9Y2U5 whole entry): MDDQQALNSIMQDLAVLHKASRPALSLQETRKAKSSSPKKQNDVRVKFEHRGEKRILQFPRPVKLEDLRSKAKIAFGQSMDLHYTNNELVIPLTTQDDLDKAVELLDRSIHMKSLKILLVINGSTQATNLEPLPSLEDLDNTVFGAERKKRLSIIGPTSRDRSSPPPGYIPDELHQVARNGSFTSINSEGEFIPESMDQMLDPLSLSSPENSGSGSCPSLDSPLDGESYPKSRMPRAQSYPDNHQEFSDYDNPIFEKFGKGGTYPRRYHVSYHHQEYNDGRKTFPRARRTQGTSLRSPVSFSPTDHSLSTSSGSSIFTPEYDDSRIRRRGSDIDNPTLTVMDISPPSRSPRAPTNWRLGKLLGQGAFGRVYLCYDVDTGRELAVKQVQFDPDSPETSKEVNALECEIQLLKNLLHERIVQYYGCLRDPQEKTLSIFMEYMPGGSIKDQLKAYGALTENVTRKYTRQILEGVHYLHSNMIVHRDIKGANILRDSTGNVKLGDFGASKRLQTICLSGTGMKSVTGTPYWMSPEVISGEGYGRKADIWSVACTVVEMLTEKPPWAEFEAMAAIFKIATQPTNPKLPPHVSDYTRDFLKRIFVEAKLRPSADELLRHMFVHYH
Sequence of Serine/threonine-protein kinase Nek2 (Homo sapiens) (P51955 whole entry): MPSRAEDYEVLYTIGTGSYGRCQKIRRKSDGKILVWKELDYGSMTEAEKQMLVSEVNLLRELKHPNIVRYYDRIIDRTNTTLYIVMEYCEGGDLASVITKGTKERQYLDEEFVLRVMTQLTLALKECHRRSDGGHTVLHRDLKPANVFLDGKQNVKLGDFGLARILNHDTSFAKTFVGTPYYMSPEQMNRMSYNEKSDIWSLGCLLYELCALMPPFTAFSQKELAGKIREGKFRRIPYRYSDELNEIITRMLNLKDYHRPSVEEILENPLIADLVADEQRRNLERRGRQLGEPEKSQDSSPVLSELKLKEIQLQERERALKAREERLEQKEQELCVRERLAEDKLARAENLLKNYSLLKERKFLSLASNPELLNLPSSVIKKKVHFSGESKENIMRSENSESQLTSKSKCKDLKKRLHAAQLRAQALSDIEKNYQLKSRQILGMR
Sequence of 5-hydroxytryptamine receptor 1B (Homo sapiens) (P28222 whole entry): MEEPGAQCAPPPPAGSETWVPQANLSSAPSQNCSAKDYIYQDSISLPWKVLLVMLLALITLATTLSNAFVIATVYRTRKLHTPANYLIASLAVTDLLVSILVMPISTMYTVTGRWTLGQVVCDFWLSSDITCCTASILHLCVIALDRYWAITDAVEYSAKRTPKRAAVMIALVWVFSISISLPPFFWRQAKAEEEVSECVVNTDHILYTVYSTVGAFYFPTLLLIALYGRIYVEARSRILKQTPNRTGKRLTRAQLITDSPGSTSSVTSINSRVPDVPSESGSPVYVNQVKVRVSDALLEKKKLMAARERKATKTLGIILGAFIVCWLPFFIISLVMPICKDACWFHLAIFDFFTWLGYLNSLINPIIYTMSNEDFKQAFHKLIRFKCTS
Sequence of Myosin light chain kinase 2, skeletal/cardiac muscle (Homo sapiens) (Q9H1R3 whole entry): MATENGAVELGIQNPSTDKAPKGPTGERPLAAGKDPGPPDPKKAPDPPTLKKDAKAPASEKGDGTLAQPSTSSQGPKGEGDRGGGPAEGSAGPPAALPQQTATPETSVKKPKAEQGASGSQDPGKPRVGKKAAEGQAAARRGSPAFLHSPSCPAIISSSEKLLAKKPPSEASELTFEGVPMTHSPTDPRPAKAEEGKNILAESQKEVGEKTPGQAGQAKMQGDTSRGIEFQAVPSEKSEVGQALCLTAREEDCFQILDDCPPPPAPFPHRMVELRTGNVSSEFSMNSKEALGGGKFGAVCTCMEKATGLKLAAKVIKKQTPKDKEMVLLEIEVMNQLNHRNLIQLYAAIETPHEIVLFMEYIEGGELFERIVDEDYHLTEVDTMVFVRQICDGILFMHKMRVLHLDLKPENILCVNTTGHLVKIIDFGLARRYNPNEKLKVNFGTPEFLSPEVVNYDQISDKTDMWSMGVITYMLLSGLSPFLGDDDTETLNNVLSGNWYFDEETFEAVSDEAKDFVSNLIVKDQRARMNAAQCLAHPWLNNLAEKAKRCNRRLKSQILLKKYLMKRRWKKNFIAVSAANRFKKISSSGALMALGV
Sequence of Tyrosine-protein kinase Tec (Homo sapiens) (P42680 whole entry): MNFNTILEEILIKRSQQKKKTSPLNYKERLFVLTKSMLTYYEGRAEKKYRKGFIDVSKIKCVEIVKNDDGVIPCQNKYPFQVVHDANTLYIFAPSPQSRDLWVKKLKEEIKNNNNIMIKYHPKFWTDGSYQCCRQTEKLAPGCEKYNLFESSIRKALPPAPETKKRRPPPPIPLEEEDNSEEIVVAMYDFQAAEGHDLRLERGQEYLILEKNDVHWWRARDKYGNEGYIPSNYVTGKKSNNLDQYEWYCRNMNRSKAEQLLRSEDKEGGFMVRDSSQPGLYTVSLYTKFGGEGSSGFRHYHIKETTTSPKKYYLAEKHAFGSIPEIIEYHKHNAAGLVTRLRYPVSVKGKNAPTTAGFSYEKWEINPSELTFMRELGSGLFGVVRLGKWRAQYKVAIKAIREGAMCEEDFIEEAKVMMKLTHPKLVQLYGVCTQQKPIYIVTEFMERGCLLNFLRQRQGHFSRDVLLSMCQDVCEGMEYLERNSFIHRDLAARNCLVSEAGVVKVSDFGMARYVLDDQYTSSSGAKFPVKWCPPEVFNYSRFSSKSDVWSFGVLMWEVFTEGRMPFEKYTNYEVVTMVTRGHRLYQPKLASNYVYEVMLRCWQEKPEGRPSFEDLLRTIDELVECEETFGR
Sequence of Serine/threonine-protein kinase LATS1 (Homo sapiens) (O95835 whole entry): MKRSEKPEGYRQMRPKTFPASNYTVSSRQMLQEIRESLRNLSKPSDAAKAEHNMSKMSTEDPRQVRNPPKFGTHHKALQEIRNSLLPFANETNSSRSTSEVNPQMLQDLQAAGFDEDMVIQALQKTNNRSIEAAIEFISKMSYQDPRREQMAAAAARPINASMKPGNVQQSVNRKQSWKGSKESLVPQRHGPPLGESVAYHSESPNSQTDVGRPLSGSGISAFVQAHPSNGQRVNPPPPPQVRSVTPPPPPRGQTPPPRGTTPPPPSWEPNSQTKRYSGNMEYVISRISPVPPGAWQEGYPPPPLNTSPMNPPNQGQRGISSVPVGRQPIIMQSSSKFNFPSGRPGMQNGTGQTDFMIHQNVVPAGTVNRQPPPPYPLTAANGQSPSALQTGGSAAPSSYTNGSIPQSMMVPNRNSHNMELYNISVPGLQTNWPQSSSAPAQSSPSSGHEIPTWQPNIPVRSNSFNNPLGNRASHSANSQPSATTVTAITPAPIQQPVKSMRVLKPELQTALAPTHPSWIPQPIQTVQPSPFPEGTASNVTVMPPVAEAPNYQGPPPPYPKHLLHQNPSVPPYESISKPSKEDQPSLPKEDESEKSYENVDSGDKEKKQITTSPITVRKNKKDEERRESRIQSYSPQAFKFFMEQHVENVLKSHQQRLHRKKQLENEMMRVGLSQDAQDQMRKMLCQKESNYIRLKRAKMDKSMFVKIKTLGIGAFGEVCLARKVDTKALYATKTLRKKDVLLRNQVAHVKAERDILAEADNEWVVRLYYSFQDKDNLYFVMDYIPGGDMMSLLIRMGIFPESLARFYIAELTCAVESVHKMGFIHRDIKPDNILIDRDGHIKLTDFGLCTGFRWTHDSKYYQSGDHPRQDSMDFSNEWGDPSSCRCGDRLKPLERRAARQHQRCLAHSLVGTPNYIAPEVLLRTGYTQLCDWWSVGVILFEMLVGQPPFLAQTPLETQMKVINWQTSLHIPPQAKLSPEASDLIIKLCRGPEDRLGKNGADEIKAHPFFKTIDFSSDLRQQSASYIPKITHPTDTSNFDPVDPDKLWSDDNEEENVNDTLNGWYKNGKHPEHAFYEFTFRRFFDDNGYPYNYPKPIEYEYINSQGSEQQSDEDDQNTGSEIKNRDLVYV

CNC(=O)Nc1ccc2c(c1)[C@@]1(CC2)OC(=O)N(CC(=O)N(Cc2ccc(F)cc2)[C@@H](C)C(F)(F)F)C1=O [A-486]
inactive: inhibition [1] 27% | inhibition [2] 4% | inhibition [3] 12% | inhibition [4] 12% | inhibition [5] -9% | residual activity [6] 84% | residual activity [7] 77% | residual activity [8] 78% | residual activity [9] 100% | residual activity [10] 96% | residual activity [11] 87% | residual activity [12] 100% | residual activity [13] 95% | residual activity [14] 78% | residual activity [15] 91% | residual activity [16] 96% | residual activity [17] 100% | residual activity [18] 59% | residual activity [19] 68% | residual activity [20] 100% | residual activity [21] 95% | residual activity [22] 100% | residual activity [23] 92% | residual activity [24] 100% | residual activity [25] 77% | residual activity [26] 100% | residual activity [27] 100% | residual activity [28] 88% | residual activity [29] 100% | residual activity [30] 96% | residual activity [31] 100% | residual activity [32] 90% | residual activity [33] 93% | residual activity [34] 89% | residual activity [35] 83% | residual activity [36] 82% | residual activity [37] 100% | residual activity [38] 82% | residual activity [39] 79% | residual activity [40] 63% | inhibition [41] 24.1% | inhibition [42] 8.38% | inhibition [43] -7.68% | inhibition [44] 13.2%

CNC(=O)Nc1ccc2c(c1)CC[C@@]21OC(=O)N(CC(=O)N(Cc2ccc(F)cc2)[C@@H](C)C(F)(F)F)C1=O [A-485]
inactive: inhibition [1] 94% | inhibition [2] 67% | inhibition [3] 28% | inhibition [4] 18% | inhibition [5] -6% | residual activity [6] 88% | residual activity [7] 66% | residual activity [8] 94% | residual activity [9] 97% | residual activity [10] 95% | residual activity [11] 88% | residual activity [12] 100% | residual activity [13] 82% | residual activity [14] 95% | residual activity [15] 73% | residual activity [16] 70% | residual activity [17] 93% | residual activity [18] 60% | residual activity [20] 89% | residual activity [21] 68% | residual activity [22] 100% | residual activity [23] 84% | residual activity [24] 100% | residual activity [25] 84% | residual activity [26] 70% | residual activity [27] 100% | residual activity [28] 96% | residual activity [29] 97% | residual activity [30] 95% | residual activity [31] 92% | residual activity [32] 86% | residual activity [33] 100% | residual activity [34] 78% | residual activity [35] 82% | residual activity [36] 74% | residual activity [37] 90% | residual activity [38] 84% | residual activity [39] 93% | residual activity [40] 83% | inhibition [41] 32.6% | inhibition [42] 7.26% | inhibition [43] 1.99% | inhibition [44] 0.39%
active: residual activity [19] 47%
